The source of these data is patent US20230212221A1, “Novel Therapeutic Uses of Mu-Opiate Receptor Peptides” (Cytogel Pharma, LLC, priority 2012, published 2023).

The target in assay [1] is T1, human mu-opioid receptor (hOPRM1) (Homo sapiens, UniProt P35372).
T1 construct: expressed in transfected cells
Kind of assay: cell-based. The protocol: The effect of mu-opioid receptor agonists on the inhibition of cAMP production is determined using the […]. Briefly, cAMP Hunter™ cell lines expressing human mu-opioid receptor (hOPRM1) are seeded in 384-well microplates at a density of 10,000 cells/well in a total volume of 20 μl, and are allowed to adhere and recover overnight. […] The cells are incubated with the mu-opioid receptor agonist in the presence of 20 μM forskolin at 37° C. for 30 minutes. The experiment is performed in duplicate.
Assay signal is generated through incubation with 20 μL cAMP XS+ED/CL lysis cocktail for one hour followed by incubation with 20 μL cAMP XS+EA reagent for three hours at room temperature. Microplates are read following signal generation with a PerkinElmer Envision™ instrument for chemiluminescent signal detection.
Percentage activity is calculated using the following formula: % Activity=100%×(1−(mean RLU of test sample−mean RLU of MAX control)/(mean RLU of vehicle control−mean RLU of MAXcontrol).

Assay [2] has as its target T1, human mu-opioid receptor (hOPRM1). Kind of assay: cell-based. On the procedure:
The effect of mu-opioid receptor agonists on beta-arrestin recruitment is determined using the PathHunter™ beta-arrestin assay. Briefly, PathHunter™ cell lines expressing human mu-opioid receptor (hOPRM1) are seeded in 384-well microplates at a density of 5,000 cells/well in a total volume of 20 μl, and are allowed to adhere and recover overnight. […] The cells are incubated with the mu-opioid receptor agonist at 37° C. for 90 minutes. The experiment is performed in duplicate.
Microplates are read following signal generation with a PerkinElmer Envision™ instrument for chemiluminescent signal detection.
Percentage activity is calculated using the following formula: % Activity=100%×(mean RLU (relative luminescence unit) of test sample−mean RLU of vehicle control)/(mean MAX RLU control ligand −mean RLU of vehicle control)).
The source holds these as a separate data set.

The target in another assay is delta receptors (Homo sapiens, UniProt P41143). The following applies: relative to mu-opiate receptor binding.

Read-outs that look alike come from different tables or passages of the source.

T1 sequence (P35372 whole entry): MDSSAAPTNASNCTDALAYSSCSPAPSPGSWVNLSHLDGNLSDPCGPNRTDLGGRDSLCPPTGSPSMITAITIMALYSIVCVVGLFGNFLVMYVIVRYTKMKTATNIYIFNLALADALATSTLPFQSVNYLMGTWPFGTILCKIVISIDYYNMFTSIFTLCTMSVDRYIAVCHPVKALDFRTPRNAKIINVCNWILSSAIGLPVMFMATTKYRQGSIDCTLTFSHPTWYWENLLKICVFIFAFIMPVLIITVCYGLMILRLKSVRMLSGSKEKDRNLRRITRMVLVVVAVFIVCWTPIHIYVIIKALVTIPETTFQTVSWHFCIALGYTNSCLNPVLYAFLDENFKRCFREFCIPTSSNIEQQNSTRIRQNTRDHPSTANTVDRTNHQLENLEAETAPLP
delta receptors, sequence (P41143 whole entry): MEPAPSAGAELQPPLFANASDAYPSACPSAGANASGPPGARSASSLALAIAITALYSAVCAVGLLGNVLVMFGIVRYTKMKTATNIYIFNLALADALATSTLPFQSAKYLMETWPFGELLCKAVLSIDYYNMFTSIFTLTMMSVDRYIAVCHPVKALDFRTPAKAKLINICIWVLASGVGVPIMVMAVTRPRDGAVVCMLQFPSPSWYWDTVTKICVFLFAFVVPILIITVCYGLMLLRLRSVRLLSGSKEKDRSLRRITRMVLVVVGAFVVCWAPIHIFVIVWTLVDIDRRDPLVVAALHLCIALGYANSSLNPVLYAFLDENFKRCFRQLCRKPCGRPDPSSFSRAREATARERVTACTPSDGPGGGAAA

`NC(Cc1ccc(O)cc1)C(=O)NC1CCCCNC(=O)C(Cc2ccccc2)NC(=O)C(Cc2c[nH]c3ccccc23)NC1=O` [CYT-1010, H-Tyr-c-[D-Lys-Trp-Phe]]: the EC50 (in general, the concentration at which the effect is half-maximal) in assay [1] (cAMP Hunter cells expressing hOPRM1, 20 μM forskolin, 30 minutes at 37° C., duplicate, read-out: EC50 (nM), inhibition of cAMP production) stood at 0.0053 nM; in assay [2] (PathHunter cells expressing hOPRM1, 90 minutes at 37° C., duplicate, read-out: EC50 (nM), beta-arrestin recruitment), 13.1 nM. The “Max Percent Activity, inhibition of cAMP production” value in assay [1] (normalized to control ligand and vehicle, 20 μM forskolin) is recorded as 98.350%. Further, the “Max Percent Activity, beta-arrestin recruitment” value in assay [2] (normalized to control ligand and vehicle, PathHunter cells expressing hOPRM1) is 121.2%.

As to H-Tyr-Pro-Trp-Phe-NH2 [SEQ ID NO:1], the “fold weaker binding to delta receptors” value on delta receptors is recorded as “over 4,000 fold”.

On to met-enkephalin [reference compound], for which, in assay [1], the “Max Percent Activity, inhibition of cAMP production” value worked out at 102.800%. For the same molecule, the “Max Percent Activity, beta-arrestin recruitment” value in assay [2] amounted to 100.1%.
